# US20060058315A1, “2-Oxo-ethanesulfonamide derivates” (AstraZeneca AB, priority 2002, published 2006)
# Target: T1, human 11βHSD1 (Homo sapiens, UniProt P28845)
# T1 construct: a construct containing full-length human 11βHSD1 enzyme (in pCMVHyg); expressed in transfected cells
# Test: HeLa GRE4-βGal/11βHSD1 cell reporter assay (β-galactosidase production)
# Assay type: cell-based
# Conditions: HeLa GRE4-βGal/11βHSD1 cells, cortisone 1 μM, overnight incubation, absorbance at 570 nm
# Excerpt: HeLa cells (human cervical carcinoma derived cells) were stably transfected with a construct containing four copies of the glucocorticoid response element (GRE) linked to a beta-galactosidase reporter gene (3 kb lac Z gene derived from pSV-B-galactosidase). These cells were then further stably transfected with a construct containing full-length human 11βHSD1 enzyme (in pCMVHyg) to create GRE4-βGal/11βHSD1 cells. The principal of the assay is as follows. Cortisone is freely taken up by the cells and is converted to cortisol by 11βHSD1 oxo-reductase activity and cortisol (but not cortisone) binds to and activates the glucocorticoid receptor. Activated glucocorticoid receptor then binds to the GRE and initiates transcription and translation of β-galactosidase. Enzyme activity can then be assayed with high sensitivity by colourimetric assay.
# Cells were routinely cultured in DMIM (Invitrogen, Paisley, Renfrewshire, UK) containing 10% foetal calf serum (LabTech), 1% glutamine (Invitrogen), 1% penicillin & streptomycin (Invitrogen), 0.5 mg/ml G418 (Invitrogen) & 0.5 mg/ml hygromycin (Boehringer). Assay media was phenol red free-DMEM containing 1% glutamine, 1% penicillin & streptomycin.
# Compounds (1 mM) to be tested were dissolved in dimethyl sulphoxide (DMSO) and serially diluted into assay media containing […]. […]
# A cocktail (25 μl) consisting of 10× Z-buffer (600 mM Na2HPO4, 400 mM NaH2PO4.2H2O, 100 mM KCl, 10 mM MgSO4.7H2O, 500 mM, β-mercaptoethanol, pH 7.0), SDS (0.2%), chlorophenol red-β-D-galactopyranoside (5 mM, Roche Diagnostics) was added per well and plates incubated at 37° C. for 3-4 hours. β-Galactosidase activity was indicated by a yellow to red colour change (absorbance at 570 nm) measured using a Tecan Spectrafluor Ultra.
# The calculation of median inhibitory concentration (IC50) values for the inhibitors was performed using Origin 6.0 (Microcal Software, Northampton M A USA). Dose response curves for each inhibitor were plotted as OD units at each inhibitor concentration with relation to a maximum signal (cortisone, no compound) and IC50 values calculated. […]
# T1 sequence (P28845 whole entry): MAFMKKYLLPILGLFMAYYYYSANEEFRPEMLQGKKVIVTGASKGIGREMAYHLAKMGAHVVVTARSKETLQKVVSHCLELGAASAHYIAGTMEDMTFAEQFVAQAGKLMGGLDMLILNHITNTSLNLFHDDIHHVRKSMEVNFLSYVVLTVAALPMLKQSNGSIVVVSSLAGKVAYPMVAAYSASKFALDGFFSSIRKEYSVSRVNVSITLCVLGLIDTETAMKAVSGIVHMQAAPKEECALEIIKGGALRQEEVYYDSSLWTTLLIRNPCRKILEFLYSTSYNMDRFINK
row,IC50,SMILES
1,72 nM,"CN(C)S(=O)(=O)CC(=O)c1ccccn1 [Example 2, (N,N-Dimethylsulphamoylmethyl)(pyrid-2-yl)ketone]"
2,47 nM,CN(C)S(=O)(=O)CC(=O)c1cnccn1 [Example 14]
3,60 nM,CC(C)Oc1ccc(C(=O)CS(=O)(=O)N(C(C)C)C(C)C)cc1 [Example 75]
